Test [1] relates to osteoblast differentiation of mouse bone marrow cells. Description: Differentiation of osteoblast: ALP-positive osteoblast nodules in mouse bone marrow cell culture. The class given is cell-based. The following applies: final concentration of 5 μM and 10 μM; p<0.05 or p<0.01; FIG. 1.
Description: Mouse bone marrow cells were seeded in each well of a microplate containing 0.5 mL Eagle minimum essential medium a modified type (α-MEM) (manufactured by MP Biomedicals INC.) at 2.5×10^6 cells/well, and cultured at 37° C., carbon dioxide concentration=5(v/v)%. […] On days 1 and 4 of culture, a differentiation induction reagent (0.2 mM ascorbic acid, 2.5 mM β-glycerophosphoric acid, 10 nM dexamethasone) was added to the following final concentrations. At 6 days from the culture, the cells were stained with alkaline phosphatase (ALP), observed with a microscope (inverted culture microscope “CK40”, manufactured by Olympus Corporation, magnification=40×), and the osteoblast nodule stained with ALP, i.e., cell nodule formed by differentiated osteoblast, was detected.
The subject of test [2] is osteoclast differentiation of mouse bone marrow cells. Description: Differentiation of osteoclast: TRAP-positive osteoclasts in mouse bone marrow cell culture. The test is classed as cell-based. The settings on record: FIG. 2. The procedure: Mouse bone marrow cells were seeded in each well of a microplate containing 0.5 mL α-MEM (manufactured by MP Biomedicals INC.) at 3.5×10^6 cells/well, and cultured at 37° C., carbon dioxide concentration=5(v/v)%. […] On days 1 and 4 of culture, a differentiation induction reagent (calcitriol) was added to a final concentration of 10 nM. At 6 days from the culture, the cells were stained with tartaric acid resistance acidic phosphatase (TRAP), observed with a microscope (inverted culture microscope “CK40”, manufactured by Olympus Corporation, magnification=40×), and the cells stained with TRAP, i.e., differentiated osteoclasts, were detected.

Structures are written as SMILES.

On to `O=C1CC(c2ccc(O)c(O)c2)Oc2cc(OC3OC(CO)C(O)C(O)C3O)ccc21` [F2, 3′,4′,7-trihydroxyflavanone 7-O-β-D-glucopyranoside], for which the “number of ALP-positive osteoblast nodules versus control” value in test [1] is “significant difference from the control”. In addition, the “final concentration at which a concentration-dependent differentiation accelerating action on osteoclast was exhibited” value in test [2] (TRAP-positive osteoclast number per well, 6 days of culture) is no less than 2.5 µM. Further, the “TRAP-positive osteoclast number versus control” value in test [2] (final concentration of 5 μM and 10 μM) is “significant difference of p<0.05”.

These data come from patent US11517603B2, “Bone remodeling accelerator” (HOKURIKU UNIVERSITY, priority 2017, dated 2022).
